The target in one assay is T1, FLT3 (Homo sapiens, UniProt P36888).
T1 sequence (P36888 27-993): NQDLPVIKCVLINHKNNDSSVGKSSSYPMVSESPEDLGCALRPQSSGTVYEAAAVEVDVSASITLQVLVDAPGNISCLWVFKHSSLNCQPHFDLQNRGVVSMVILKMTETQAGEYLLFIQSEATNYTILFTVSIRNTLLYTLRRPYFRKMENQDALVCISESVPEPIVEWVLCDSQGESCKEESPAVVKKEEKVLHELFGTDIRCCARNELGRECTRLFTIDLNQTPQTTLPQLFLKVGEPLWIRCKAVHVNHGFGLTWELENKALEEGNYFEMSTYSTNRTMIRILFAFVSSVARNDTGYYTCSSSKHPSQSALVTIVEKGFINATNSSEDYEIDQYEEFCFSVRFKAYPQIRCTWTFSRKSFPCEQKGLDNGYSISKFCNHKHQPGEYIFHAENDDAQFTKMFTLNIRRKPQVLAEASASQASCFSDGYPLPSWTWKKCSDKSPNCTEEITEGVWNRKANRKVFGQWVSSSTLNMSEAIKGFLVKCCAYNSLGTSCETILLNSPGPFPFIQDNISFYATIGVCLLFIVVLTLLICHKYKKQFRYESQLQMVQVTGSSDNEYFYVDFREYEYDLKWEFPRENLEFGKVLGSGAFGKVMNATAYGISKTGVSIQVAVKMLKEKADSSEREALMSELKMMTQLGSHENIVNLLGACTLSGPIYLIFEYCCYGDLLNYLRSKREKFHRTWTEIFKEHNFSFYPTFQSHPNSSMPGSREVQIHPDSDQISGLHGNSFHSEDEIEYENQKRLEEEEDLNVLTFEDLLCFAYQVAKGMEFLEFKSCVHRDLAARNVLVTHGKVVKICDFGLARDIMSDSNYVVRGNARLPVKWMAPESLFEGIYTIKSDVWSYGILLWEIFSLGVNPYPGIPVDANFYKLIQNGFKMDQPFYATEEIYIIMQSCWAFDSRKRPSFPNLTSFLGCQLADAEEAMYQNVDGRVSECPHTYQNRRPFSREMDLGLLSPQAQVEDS
Nature of the assay: RBC HotSpot Kinase Assay, FLT3. Format: biochemical. Also noted: purchased Reaction Biology (RBC), HotSpot kinase assay. Particulars: isolated kinase, 33P-ATP. In short, it runs like this: (§1)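 Read-out was P81 filter binding of 33P incorporated into substrate by isolated kinase during a 2 h room-temperature reaction. Compound was preincubated with enzyme for 20 min at room temperature; buffer was Hepes pH 7.5 with Mg2+, EGTA, Brij35 and 1% DMSO.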

Another assay has as its target T2, IRAK1 (Homo sapiens, UniProt P51617).
T2 construct: purchased Reaction Biology (RBC), HotSpot kinase assay
Nature of the assay: RBC HotSpot Kinase Assay, IRAK1. Format: biochemical. Particulars: isolated kinase, 33P-ATP. Summed up: as §1

T2 sequence (P51617 whole entry): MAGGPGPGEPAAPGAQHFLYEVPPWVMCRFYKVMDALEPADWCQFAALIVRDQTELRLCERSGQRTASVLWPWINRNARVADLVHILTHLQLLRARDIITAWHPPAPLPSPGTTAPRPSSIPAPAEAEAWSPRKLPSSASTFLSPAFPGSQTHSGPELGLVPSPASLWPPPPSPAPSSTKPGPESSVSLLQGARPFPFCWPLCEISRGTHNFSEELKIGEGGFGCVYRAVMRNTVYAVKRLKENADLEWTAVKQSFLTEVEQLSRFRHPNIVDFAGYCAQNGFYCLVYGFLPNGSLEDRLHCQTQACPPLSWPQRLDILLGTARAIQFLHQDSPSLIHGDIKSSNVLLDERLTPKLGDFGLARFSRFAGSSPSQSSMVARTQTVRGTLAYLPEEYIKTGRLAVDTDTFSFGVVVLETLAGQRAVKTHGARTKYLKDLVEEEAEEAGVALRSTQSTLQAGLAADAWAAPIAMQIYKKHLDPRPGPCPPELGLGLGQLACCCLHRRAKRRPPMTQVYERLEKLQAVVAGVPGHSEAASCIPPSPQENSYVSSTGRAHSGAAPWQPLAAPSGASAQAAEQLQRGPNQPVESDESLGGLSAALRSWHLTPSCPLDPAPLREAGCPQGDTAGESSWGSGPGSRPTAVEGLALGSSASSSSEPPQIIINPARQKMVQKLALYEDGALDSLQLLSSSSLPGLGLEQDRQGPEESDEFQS

Turning to `O=C1CCCN1c1cn2c(-c3cccc(N[C@H]4CNCC[C@@H]4F)n3)cnc2cn1` [Compound 119, 1-(3-(6-(((3S,4S)-4-fluoropiperidin-3-yl)amino)pyridin-2-yl)imidazo[1,2-a]pyrazin-6-yl)pyrrolidin-2-one], the IC50 (in general, the concentration that inhibits the measured activity by half) is less than 0.0005 µM at FLT3 and 0.11 µM at IRAK1.
For `O=C1CCCN1c1cn2c(-c3cccc(N[C@H]4CNC[C@@H]4F)n3)cnc2cn1` [Compound 121, 1-(3-(6-(((3S,4S)-4-fluoropyrrolidin-3-yl)amino)pyridin-2-yl)imidazo[1,2-a]pyrazin-6-yl)pyrrolidin-2-one], in that order: less than 0.0005 µM and 0.207 µM.
For `CC(C)(C)c1cn2c(-c3nc(N[C@H]4CNC[C@@H]4F)c(F)cc3F)cnc2cn1` [Compound 125], in that order: less than 0.0005 µM and 0.051 µM.
For `CC(C)(C)c1cn2c(-c3nc(N[C@@H]4CCCNC4)c(F)cc3F)cnc2cn1` [Compound 126, (R)-6-(6-(tert-butyl)imidazo[1,2-a]pyrazin-3-yl)-3,5-difluoro-N-(piperidin-3-yl)pyridin-2-amine], in that order: less than 0.0005 µM and 0.08 µM.
As for `CC(C)(C)c1cn2c(-c3nc(N[C@H]4CNCC[C@@H]4F)c(F)cc3F)cnc2cn1` [Compound 127, 6-(6-(tert-butyl)imidazo[1,2-a]pyrazin-3-yl)-3,5-difluoro-N-((3S,4S)-4-fluoropiperidin-3-yl)pyridin-2-amine], the half-maximal inhibitory concentration (IC50) is less than 0.0005 µM against FLT3 and 0.06 µM against IRAK1.
For `CC(C)(C)c1cn2c(-c3cccc(N[C@@H]4CCCNC4)n3)cnc2cn1` [Compound 129, (R)-6-(6-(tert-butyl)imidazo[1,2-a]pyrazin-3-yl)-N-(piperidin-3-yl)pyridin-2-amine] the same measures were less than 0.0005 µM and 0.097 µM.
For `CC(C)(C)c1cn2c(-c3cccc(N[C@H]4CNCC[C@@H]4F)n3)cnc2cn1` [Compound 130, 6-(6-(tert-butyl)imidazo[1,2-a]pyrazin-3-yl)-N-((3S,4S)-4-fluoropiperidin-3-yl)pyridin-2-amine] the same measures were less than 0.0005 µM and 0.049 µM.

Source of the values: US12612410B2 (CHILDREN'S HOSPITAL MEDICAL CENTER, priority 2020, dated 2026).
